US9006212B2, “Compositions and methods for pest control” (Massachusetts Institute of Technology, priority 2009, dated 2015)

Tests used:
M. anisopliae conidia = assay: Antifungal assays and combinatorial cytotoxicity mapping on conidia; assay type: cell-based, Metarhizium anisopliae
Description: This mix was incubated for 18-24 hours at 25° C., then plated onto potato dextrose agar 100×15 mm plates and supplemented with 50 μg/mL ampicillin CFUs were counted following a 4-day incubation at 25° C. Femtoliter changes in conidial cell volume were directly measured by flow cytometry. Samples of M. anisopliae conidia in sodium acetate (0.1M, pH 5.5) were incubated in 384 well plates with samples from HPLC fractions in different combinations (F1+F1, F1+F2, F1+F3 . . . F2+F2, F2+F3 . . . F3+F3 . . . , 10 μL of each fraction) overnight at 25° C. and analyzed by flow cytometry. tGNBP-2 was depleted from 250 μL of each fraction as described above, and supernatants were collected and used for the assay.

[1] = system: SAPK/JNK signaling in hemocytes; assay: Intracellular flow cytometry for SAPK/JNK phosphorylation in termite hemocytes; assay type: cell-based, N. corniger
Description: N. corniger workers, large workers or soldiers (whole termites or isolated tissues) were surface sterilized (brief wash with 5% hypochlorite and 3 washes with sterile water) and homogenized in acetate buffer (200 mM, pH 5.0, 4 μL/termite) with Biomasher® columns (pore size 80-145μ, […], San Carlos, Calif.) according to the manufacturer's instructions. Cuticular washes were prepared by gently agitating chilled workers in 0.1% Tween 80 for 5 seconds (10 μL/worker). Wash samples were concentrated with a P10 Microcon® filter (Millipore, Billerica, Mass.). Termite hemocytes were collected from hemolymph drawn from 10 chilled N. corniger workers (1 μL/termite) using a micropipette and kept in ice-cold Burns-Tracy saline as described previously (37). Whole cell preparations were obtained by gentle trituration of termites in ice-cold Burns-Tracy saline. Hemocyte staining was performed in 0.1% w/v BSA, 0.01% w/v NaN3 in PBS, 30 min on ice per antibody with a single wash with buffer between antibodies (38). Primary antibodies: anti-tGNBP-2 (5 μg/mL) or rabbit IgG (5 μg/mL, Sigma, St. Louis, Mo.); secondary antibody: anti-rabbit PE (1:400, Invitrogen, Carlsbad, Calif.). […] Flow cytometry was performed on a Beckman-Coulter Cell Lab QuantaTM SC MPL-automated flow cytometer and analyzed with Quanta AnalysisTM software.

other β-glucanases = assay: β(1,3)-glucanase activity assay, tGNBP-2-depleted termite lysate; assay type: biochemical, N. corniger; settings: tGNBP-2-depleted lysate, FIG. 5C
Description: (§1) FIG. 2 provides results from a microsphere-based flow cytometric assay for β(1,3)-glucanase activity. Laminarin was labeled at the reducing end with rhodamine green X-succinyl ester, stably adsorbed on 3.0μ-diameter polystyrene microspheres in carbonate/bicarbonate buffer at pH=9.6 and washed in 100 mM sodium acetate pH 5.5. Samples were then incubated with the fluorescent microspheres for varying time periods starting from 15 min and analyzed by flow cytometry. Purified β(1,3)-glucanase at 100 μg/mL (0.1 mU/mL) and sodium acetate buffer alone were used as positive and negative controls, respectively. Finally, fluorescence data were transformed to % activity and plotted vs. samples or concentrations. β(1,3)-glucanase activity was measured by a gel electrophoresis assay (39) and by a flow cytometric method developed (FIG. 2). Briefly, samples were run on Carboxymethyl Curdlan REmazol Brilliant Blue (CN-Curdlan-RBB, Lowe Biochemica, Germany). […] Samples were mixed with 1 μL of the microsphere suspension, incubated for 15-30 minutes at 37° C. and analyzed by flow cytometry. Commercially available purified β(1,3)-glucanase from Helix pomatia or Bacilus subtilis was used at 0.1 mU/mL as positive control and results were expressed as % activity of this control.

[2] = system: termites infected with M. anisopliae; assay: In-vivo survival and exposure assays; design: species or system N. corniger
Description: Conidia (approx. 3×10^7/mL) were centrifuged at 12,000×g for 1 minute and then suspended in 600 μL 0.1% Tween 80 by vortexing. Two groups of 12 large workers were exposed to filter paper (Watman 5) moistened with these suspensions in 35×15 mm petri dishes for 20 hours. The filter paper was replaced with sterile water-moistened filter paper and dead termites were removed after a daily census of survivorship. tGNBP-2 treatment was performed with conidia suspended in a sample of the immunoprecipitated protein overnight at 25° C., followed by extensive washing in PBS containing 0.1% Tween 80. Dead termites were removed daily, surface sterilized with 70% ethanol and incubated in sterile plates at RT for 4 days for post mortem analysis. For exposure to laminarin or LPS, filter papers were moistened with 300 μL of 0.5 mg/mL or 5 mg/mL solutions of either carbohydrate. Termites were kept on moist filter paper for 24 hours prior to exposure with conidia (10^7/mL). Controls included termites that were not exposed to sugars and/or conidia (0.1% Tween 80). Data were analyzed by Mann-Whitney U test and Wilcoxon Signed Rank tests with Bonferroni corrections for multiple testing. Termite survival data were analyzed by Cox Regression Analysis. Flow histogram SDs were calculated using software produced half-peak coefficients of variance (% HPCV×mean). Data are presented as means±SD.

termite gut symbionts = settings: reference 34; cited from earlier work
tGNBP-2 expression [3] = assay: Induction of tGNBP-2 by laminarin challenge on isolated termite cells, Western blot; assay type: cell-based, N. corniger; settings: 20 mM, FIG. 5E
Description: N. corniger workers, large workers or soldiers (whole termites or isolated tissues) were surface sterilized (brief wash with 5% hypochlorite and 3 washes with sterile water) and homogenized in acetate buffer (200 mM, pH 5.0, 4 μL/termite) with Biomasher® columns (pore size 80-145μ, […], San Carlos, Calif.) according to the manufacturer's instructions. Cuticular washes were prepared by gently agitating chilled workers in 0.1% Tween 80 for 5 seconds (10 μL/worker). Wash samples were concentrated with a P10 Microcon® filter (Millipore, Billerica, Mass.). Termite hemocytes were collected from hemolymph drawn from 10 chilled N. corniger workers (1 μL/termite) using a micropipette and kept in ice-cold Burns-Tracy saline as described previously (37). Whole cell preparations were obtained by gentle trituration of termites in ice-cold Burns-Tracy saline. Anti-tGNBP-2 antibodies were raised in rabbits and purified by standard methods (GenScript, Piscataway, N.J.). Antibodies were covalently linked to 1.0μ diameter Dynabeads® MyOneTM carboxylic acid functionalized magnetic beads (Invitrogen) according to the manufacturer's instructions. Fresh termite extract was diluted 1:1 with IP buffer (25 mM Tris-HCl pH 7.6, 150 mM NaCl, 1% v/v NP-40, 1% v/v protease inhibitor cocktail), and incubated with beads for 1 hour at RT. […]

tGNBP-2 [4] = assay: β(1,3)-glucanase activity assay (flow cytometric microsphere assay, zymogram); assay type: biochemical, N. corniger; settings: dose/response, FIG. 5C
Description: as §1

tGNBP-2 expression [5] = assay: tGNBP-2 expression following exposure of termites to LPS or laminarin; assay type: in vivo, N. corniger; settings: 0.5 or 5 mg/mL, FIG. 4F
Description: Anti-tGNBP-2 antibodies were raised in rabbits and purified by standard methods (GenScript, Piscataway, N.J.). Antibodies were covalently linked to 1.0μ diameter Dynabeads® MyOne™ carboxylic acid functionalized magnetic beads (Invitrogen) according to the manufacturer's instructions. Fresh termite extract was diluted 1:1 with IP buffer (25 mM Tris-HCl pH 7.6, 150 mM NaCl, 1% v/v NP-40, 1% v/v protease inhibitor cocktail), and incubated with beads for 1 hour at RT. Beads were isolated, washed with IP buffer, and eluted with a commercial neutral pH buffer (Pierce, Rockford, Ill.). Eluate was desalted and concentrated using a centrifugal column (Vivaspin 10K, Sartorius, Goettingen, Germany) and reconstituted in sodium acetate (0.1M, pH 5.5). SDS-PAGE and western blots were performed and developed by standard procedures; loading amounts were validated by BCA assay. Anti-tGNBP-2 was used at 2.5 μg/mL followed by anti-rabbit HRP (Cell Signaling) at 1:1000. Blots were visualized on a Kodak ImageStation 2000R. […] Conidia (approx. 3×10^7/mL) were centrifuged at 12,000×g for 1 minute and then suspended in 600 μL 0.1% Tween 80 by vortexing. Two groups of 12 large workers were exposed to filter paper (Watman 5) moistened with these suspensions in 35×15 mm petri dishes for 20 hours. […]

tGNBP-2 [6] = assay: In-vitro binding interference assay with FITC-labeled LPS; design: species or system N. corniger; settings: increasing concentrations, FIG. 5A
Description: Isolated tGNBP-2 or rhCD14 (R&D Systems, Minneapolis, Minn.) were linked to 3.0μ diameter polystyrene beads (Polysciences) by a 3-hour incubation in boric acid (0.1M, pH 8.5) followed by 3 washes in cold PBS containing 0.1% v/v rabbit serum. Formaldehyde-inactivated pathogenic strains were labeled with FITC as previously described (41). Beads were incubated with labeled pathogens in buffer at 37° C. for 30 minutes and analyzed by flow cytometry. For interference assays, tGNBP-2-adsorbed beads were incubated with either LPS or laminarin at various concentrations, then directly stained with FITC-labeled LPS (Sigma) and analyzed by FACS.

| Compound | direct toxic effect on conidia (M. anisopliae conidia) | hemocyte population whose activation is affected ([1]; two hemocyte populations expressing tGNBP-2) | SAPK/JNK phosphorylation activation response of hemocytes ([1]; β(1,3)-D-glucan challenge, FIG. 5D) | effect on other β-glucanases (other β-glucanases) | susceptibility to infection with tGNBP-2-treated conidia ([2]; conidia treated with isolated tGNBP-2 prior to infection) | mortality of termites in the absence of active infection ([2]; no infection) | mortality of termites infected with M. anisopliae ([2]; treated for 24 hours prior to infection, FIG. 6) | blocking of gut symbiont pathways for polysaccharide utilization (termite gut symbionts) | induction of tGNBP-2 by laminarin challenge (tGNBP-2 expression [3]) | blocking of the β(1,3)-glucanase activity of tGNBP-2 (tGNBP-2 [4]) | tGNBP-2 expression following exposure (tGNBP-2 expression [5]) | interference with fluorescent LPS binding to bead-linked tGNBP-2 (tGNBP-2 [6]) | resistance to M. anisopliae infection ([2]; termites exposed to 0.5 or 5 mg/mL for 24 hours prior to conidia, FIG. 4E) |
| --- | --- | --- | --- | --- | --- | --- | --- | --- | --- | --- | --- | --- | --- |
| O=C1O[C@H](CO)[C@@H](O)[C@H](O)[C@H]1O [GDL, D-δ-gluconolactone] | no direct toxic effect | affected only the activation of granular hemocytes | inhibited this activation response | left other β-glucanases intact | restored susceptibility to infection | caused accelerated mortality | accelerated mortality | not blocked | blocks induction | efficiently blocked |  |  |  |
| laminarin |  |  |  |  |  |  |  |  |  |  | significant upregulation | does not interfere | improved resistance |
